For assay [1] the following is noted: amino acids added to C-terminal α-MSH (11-13); cited from earlier work.
Assay [2] relates to C. albicans. Description: C. albicans colony forming units (viability) after incubation with peptide. The following applies: for relative potency in reducing C. albicans viability: 10^−4 M melanocortin peptides (FIG. 2 legend: all 10^−6 M); for reducing C. albicans CFU at higher concentrations: up to 10^−4 M, results not shown in the figures. In kind it is cell-based. As to the method:
C. albicans (clinical isolate) was obtained from the collection of the Department of Microbiology, Ospedale Maggiore di Milano and maintained on Sabouraud's agar slants and periodically transferred to Sabouraud's agar plates and incubated for 48 hours at 28° C. To prepare a stationary growth phase yeast, a colony was taken from the agar plate and transferred into 30 ml Sabouraud-dextrose broth and incubated for 72 hours at 32° C. Cells were centrifuged and suspended in Hank's balanced salt solution (“HBSS”) to the desired concentration. Viability, determined by the exclusion of 0.01% methylene blue, remained >98%.
C. albicans (1×10^6/ml in HBSS) was incubated in the presence of absence or (1-13) (SEQ ID NO: […]) or (11-13) (SEQ ID NO: 1) at concentrations in the range of 10^−15 M to 10^−6 M for 2 hours at 37° C. Cells were then washed in cold distilled water and diluted with HBSS to a concentration of 100 organisms/ml. One-ml aliquots were dispensed on blood agar plates and incubated for 48 hours at 37° C. Organism viability was estimated from the number of colonies formed.
In subsequent experiments using familiar procedures we compared activity of α-MSH (4-10) (SEQ ID NO: 2), (6-13) (SEQ ID NO: 3), (11-13) (SEQ ID NO: 1), ACTH (SEQ ID NO: 5) (1-39), (18-39) (SEQ ID NO: 6) and fluconazole, the latter an established antifungal agent. Melanocortin peptides and fluconazole were tested in concentrations of 10^−6 M to 10^−4 M. There were at least six replicates for each concentration of peptide. […]

For assay [3] the following is noted: stereochemistry analogs, Hiltz et al. 1991; cited from earlier work.
Assay [4] has as its system C. albicans. Description: C. albicans killing by human neutrophils. The following applies: FIG. 4; 10^−12 M to 10^−4 M; 2 hours at 37° C.; p<0.01. Format: cell-based. How it is done: Venous blood (20 ml) from health volunteers was anticoagulated with heparin. Neutrophils were isolated using dextran sedimentation and Ficoll-Hypaque (Sigma Chemical Co., St. Louis, […]., USA) centrifugation. Erythrocytes were lysed via hypotonic shock. Neutrophils represented at least 97% of the cell suspension. Cell viability, estimated by trypan blue exclusion, was >98%. Neutrophils were suspended to a final concentration in HBSS. C. albicans (1×^6) were opsonized with human AB serum in a shaking water bath for 30 minutes at 37° C. Organisms were then incubated with neutrophils in medium or in medium with α-MSH (1-13) (SEQ ID NO: 4) or α-MSH(11-13) (SEQ ID NO: 1) in concentrations of 10^31 15 M to 10^31 4 M in a shaking water bath for 2 hours at 37° C. After incubation, the culture tubes were placed on ice stop growth and extracellular organisms were washed twice with centrifugation at 1000×g at 4° C. A 2.5% sodium desoxycholoate solution was added to obtain a suspension of […]. Two 1/100 serial dilutions in HBSS were made to obtain a final suspension of 100 cells/ml. Aliquots of 1 ml were dispensed on blood agar plates and incubated for 48 hours at 37° C. Colony forming units (CFUs) were counted at the end of the incubation period. Experiments were run in triplicate and repeated using blood from 5 different donors.

Assay [5] deals with C. albicans. The assay can be described thus: C. albicans colony forming units (viability) after incubation with peptide. The following applies: FIG. 1; peptide 10^−12 M to 10^−4 M; 2 hours at 37° C.; p<0.01 vs. control. Format: cell-based.
For assay [6], the system named is cAMP content of C. albicans. The assay can be described thus: cAMP content of permeabilized C. albicans (EIA). Format: cell-based. Conditions: FIG. 5; 10^−6 M, 3 minutes; increase of same order of magnitude as equimolar forskolin. How it is done: C. albicans ([…]), permeabilized with toluene/ethanol, were incubated at 37° C. with continuous shaking in the presence of 10^31 6 M α-MSH(1-13) (SEQ ID NO: 4), (11-13) (SEQ ID NO: 1), forskolin, an agent known to increase intracellular cAMP, or in medium alone. The reaction was stopped after 3 minutes by the addition of ice cold ethanol, cAMP was measured in duplicate using a commercial enzyme immunoassay (EIA) kit (Amersham, United Kingdom) after extraction via the liquid-phase method according to manufacturer's instructions. The effect of forskolin (10^−6 M) on C. albicans colony formation was determined using the same procedure as for α-MSH peptides.

The conditions of assay [7]: versus α-MSH; cited from earlier work.

Where no end group is shown, it is not given here.

As to “8-13 sequence: α-MSH 8-13 sequence (RWGKPV; ends and bridges not checked; UniProt P01189 145-150, looked up, fragment)”, the “antipyretic potency relative to the 11-13 sequence” value in assay [1] is on record as “greater than that of the 11-13 sequence”.
“9-13 sequence: α-MSH 9-13 sequence (WGKPV; ends and bridges not checked; UniProt P01189 146-150, looked up, fragment)”: the “antipyretic potency relative to the 11-13 sequence” value in assay [1] is “almost devoid of activity”.
Turning to “10-13 sequence: α-MSH 10-13, glycine added to the 11-13 sequence (GKPV; ends and bridges not checked; UniProt P01189 147-150, looked up, fragment)”, the “antipyretic potency relative to the 11-13 sequence” value in assay [1] is on record as “slightly decreased the potency”.
Turning to “ACTH (1-39): adrenocortitrophic hormone (1-39) (SYSMEHFRWGKPVGKKRRPVLVYPAGEDDEASEAFPLEF)”, in the assay with C. albicans [2] (FIG. 2), the “relative potency in reducing C. albicans viability” value was “did not reduce C. albicans viability”. Besides, in the assay on C. albicans [2], the “reducing C. albicans CFU at higher concentrations” value is “ineffective”.
For the substance “ACTH fragment (18-39): ACTH fragment (18-39) (CLIP) (RPVLVYPAGEDDEASEAFPLEF)”, the “relative potency in reducing C. albicans viability” value in the assay on C. albicans [2] (FIG. 2) was “did not reduce C. albicans viability”. For the same substance, the “reducing C. albicans CFU at higher concentrations” value with C. albicans [2] is “ineffective”.
For Ac-[D-K^11]-α-MSH 11-13-NH2, the “anti-inflammatory potency/activity relative to the L-form tripeptide α-MSH 11-13” value in assay [3] was “same general potency”.
Take “HFRWGKPV (Ac-HFRWGKPV-NH2) [α-MSH (6-13)]”: the “relative potency in reducing C. albicans viability” value in the assay with C. albicans [2] (FIG. 2) was “most effective”.
Turning to “KPV (Ac-Lys-Pro-Val-NH2) [α-MSH (11-13)]”, the “killing of C. albicans by human neutrophils” value in the assay with C. albicans [4] was “enhanced the killing”. The “C. albicans colony forming units (CFU)” value in the assay on C. albicans [5] is on record as “greatly reduced”. Also, in the assay on C. albicans [2] (FIG. 2), the “relative potency in reducing C. albicans viability” value is on record as “most effective”. Also, the “cAMP content in the yeast” value in assay [6] is recorded as “enhanced”.
On to SYSMEHFRWGKPV [α-MSH (1-13)], for which the “killing of C. albicans by human neutrophils” value in the assay on C. albicans [4] is “enhanced the killing”. Further, the “C. albicans colony forming units (CFU)” value in the assay with C. albicans [5] is “greatly reduced”. Moreover, the “relative potency in reducing C. albicans viability” value with C. albicans [2] (FIG. 2) is “most effective”. Further, in assay [6], the “cAMP content in the yeast” value was “enhanced”.
On to “VPK-Ac-CC-Ac-KPV (Ac-CKPV; also: disulfide-linked dimer through Cys)”, for which the “C. albicans colony forming units (CFU)” value with C. albicans [5] is reported as “inhibited C. albicans colony formation”. In addition, the “effectiveness against microbes compared with α-MSH (11-13)” value in the assay on C. albicans [2] is on record as “at least as effective”.
Turning to [Nle^4,D-Phe^7]-α-MSH, the “potency in reducing fever relative to the parent peptide” value in assay [7] was “approximately 10 times”.
Consider “α-MSH (4-10): core α-MSH sequence (4-10), SEQ ID NO: 2”, for which the “inhibition of CFU” value in the assay with C. albicans [2] (FIG. 2, 10^−4 M (FIG. 2 legend: 10^−6 M), p<0.01 vs. control) was “approximately 50%”.

The values above are taken from US6780838B2, “Compounds for treating fungal pathologies of the oral cavity” (priority 2001, dated 2004).
